In ChEMBL document CHEMBL1127033, “Synthesis and anti-HIV-1 activity of a series of imidazo[1,5-b]pyridazines” (J Med Chem, 1993):
Values joined by “and” are separate entries in the source; they are usually repeats but may differ in a detail not shown here. Equal values may be shown once.

Key:
[1] = test system: MT4; assay: Inhibition of growth in uninfected MT-4 cells in MTM assay; format: functional, cell-based; conditions: Homo sapiens
[2] = target: T1, Human immunodeficiency virus type 1 reverse transcriptase (Human immunodeficiency virus 1, UniProt Q72547); assay: In vitro inhibitory concentration against reverse transcriptase of HIV-1 (RT)
[3] = test system: C8166; assay: Inhibition of p24 antigen formation in infected C8166-cells; format: functional, cell-based; conditions: Homo sapiens
[4] = test system: C8166; assay: Inhibition of syncytia formation in infected C8166-cells; format: functional, cell-based; conditions: Homo sapiens
[5] = test system: Human immunodeficiency virus 1; assay: (§1) Inhibition of HIV-1 (strain A17)-infected MT-4 cells; format: functional, organism-based; conditions: Human immunodeficiency virus 1, MT4
[6] = target: T1, Human immunodeficiency virus type 1 reverse transcriptase; assay: Inhibition of reverse transcriptase of HIV-1 (strain RF)-infected MT-4 cells in RPMI 1640 growth medium in MTM assay; Toxic; format: cell-based; conditions: mt4
[7] = target: T1, Human immunodeficiency virus type 1 reverse transcriptase; assay: Inhibition of reverse transcriptase activity of HIV-1 in the presence of [alpha35 S] TTP as cosubstrate.
[8] = test system: MT4; assay: as §1; format: functional, cell-based; conditions: Homo sapiens

Structure (SMILES)	IC50 [1]	IC50 [2]	EC50 [3]	EC50 [4]	further results
COc1ccc2c(C)nc(CCCCCCC(=O)c3ccccc3)n2n1	250000 nM	640 nM	–	–	–
CSc1ccc2c(C)nc(CCCCCCC(=O)c3ccccc3)n2n1	27000 nM	80 nM	–	–	–
Cc1nc(CCCCCCC(O)c2ccccc2)n2nc(-n3ccnc3)ccc12 (stereo unspecified)	26000 nM	230 nM	4 nM	6 nM	–
Cc1nc(CCCCCCC(=O)c2ccccc2)n2nc(-n3ccnc3C)ccc12	260000 nM	2500 nM	–	–	–
CCc1nc(CCCCCCC(=O)c2ccccc2)n2nc(Cl)ccc12	25000 nM	2000 nM	–	–	–
Cc1nc(CCCCCOC(=O)C2CCCC2)n2nc(Cl)ccc12	250000 nM	22000 nM	–	–	–
Cc1nc(CCCCCC(=O)c2ccccc2)n2nc(Cl)ccc12	250000 nM	4800 nM	–	–	–
Cc1nc(CCCCCCC(=O)c2ccccc2)n2nc(Cl)ccc12	25000 nM	840 nM	80 nM	80 nM	–
CNc1ccc2c(C)nc(CCCCCCC(=O)c3ccccc3)n2n1	25000 nM	3400 nM	–	–	–
Cc1nc(CCCCCCC(O)c2ccccc2)n2nc(Cl)ccc12 (stereo unspecified)	250000 nM	380 nM	< 80 nM	< 80 nM	–
O=C(CCCCCCc1ncc2ccc(Cl)nn12)c1ccccc1	25000 nM	340 nM	340 nM	210 nM	–
Cc1nc(CCCCCCC(=O)c2ccccc2)n2nc(-n3cccc3)ccc12	26000 nM	80 nM	5 nM	7 nM	–
Cc1nc(CCCCCCC(=O)c2ccccc2)n2nc(-n3cncn3)ccc12	26000 nM	100 nM	–	–	–
CC(=O)OCCCCCc1nc(C)c2ccc(Cl)nn12	–	110000 nM	–	–	–
Cc1nc(CCCCCCC(=O)c2ccccc2)n2nc(-n3cnnc3)ccc12	260000 nM	2600 nM	–	–	–
Cc1nc(CCCCCCCC(=O)c2ccccc2)n2nc(Cl)ccc12	250000 nM	3000 nM	–	–	–
Cc1cn(-c2ccc3c(C)nc(CCCCCCC(=O)c4ccccc4)n3n2)cn1	260000 nM	550 nM	160 nM	65 nM	–
Cc1nc(CCCCCCC(=O)c2ccccc2)n2nc(N3CCCCC3)ccc12	–	6700 nM	–	–	–

Structure (SMILES)	IC50 [1]	IC50 [2]	EC50 [3]	EC50 [4]	further results
Cc1nc(CCCCCC(=O)Cc2ccccc2)n2nc(Cl)ccc12	28000 nM	3900 nM	–	–	–
Cc1nc(CCCCCO)n2nc(Cl)ccc12	–	> 100000 nM	–	–	–
Cc1nc(CCCCCCC(=O)c2ccccc2)n2nc(-n3ccnc3)ccc12	26000 nM	0.6 nM	5 nM	0.6 nM	EC50 [5]: 1900 nM
Cc1nc(CCCCCCC(=O)c2ccccc2)n2nc(-n3cccn3)ccc12	26000 nM	3400 nM	–	–	–
Cc1nc(CCCCCOC(=O)c2ccccc2)n2nc(Cl)ccc12	> 25000 nM	1340 nM and 1300 nM	1100 nM	1600 nM	–
Cc1nc(CCCCCCC(=O)c2ccccc2)n2nc(-n3nccn3)ccc12	260000 nM	1300 nM	–	–	–
Cc1nc(CCCCCCC(=O)c2ccccc2)n2nc(N)ccc12	30000 nM	3000 nM	–	–	–
Cc1nc(CCCCCCC(=O)c2ccccc2)n2ncccc12	280000 nM	560 nM	–	–	–
Cc1nc(CCCCCCCc2ccccc2)n2nc(Cl)ccc12	250000 nM	14000 nM	–	–	–
Cc1nc(CCCCCCC(=O)c2ccccc2)n2nc(N3CCCC3)ccc12	< 30 nM	50 nM	–	–	EC50 [6]: Toxic
Cc1nc(CCCCCCC(=O)c2ccccc2)n2nc(N(C)C)ccc12	27000 nM	270 nM	–	–	–
CC(C)c1nc(CCCCCCC(=O)c2ccccc2)n2nc(Cl)ccc12	–	110000 nM	–	–	–
Cc1nc(CCCCCCC(=O)c2ccccc2)n2nc(-n3cncc3C)ccc12	26000 nM	100 nM	30 nM	10 nM	–
Cc1nc(CCCCCCC(=O)c2ccccc2)n2nc(-n3ccnn3)ccc12	26000 nM	640 nM	–	–	–
Cc1nc(CCCCCOCc2ccccc2)n2nc(Cl)ccc12	290000 nM	2300 nM	380 nM	580 nM	–
CCc1cc(NCc2nc3c(Cl)ccc(Cl)c3o2)c(O)nc1C [L-697661]	–	–	7 nM	7 nM	IC50 [7]: 850 nM; EC50 [8]: > 10000 nM
Cc1cn([C@H]2C[C@H](N=[N+]=[N-])[C@@H](CO)O2)c(=O)[nH]c1=O [ZIDOVUDINE]	–	–	20 nM	30 nM	EC50 [5]: 10 nM
